The test system of series [1] is STAT1 human mRNA. As to the kind of experiment: Initial screen of siNAs: STAT1 mRNA knock-down in A549 cells (96-well transfection, Taqman RT-PCR). Particulars: 10 nM siNA, 24 hrs, normalized against GAPDH, average of 2 experiments. Type of series: cell-based. How it is done: A549 (human; ATCC cat# CCL-185): Cells were cultured at 37° C. in the presence of 5% CO2 and grown in Ham's F12K medium with 2 mM L-glutamine adjusted to contain 1.5 g/L sodium bicarbonate and supplemented with fetal bovine serum at a final concentration of 10% and 100 μg/mL of streptomycin and 100 U/mL penicillin.
(§1) Cells were plated in all wells of a tissue-culture treated, 96-well plate at a final count of 5000 cells/well in 100 μL of the appropriate culture media. The cells were cultured for 24 hours after plating at 37° C. in the presence of 5% CO2.
(§2) After 24 hours, complexes containing siNA and RNAiMax were created as follows: A solution of RNAiMax diluted 33-fold in OPTI-MEM was prepared. In parallel, solutions of the siNAs for testing were prepared to a final concentration of 120 nM in OPTI-MEM. After incubation of RNAiMax/OPTI-MEM solution at room temperature for 5 min, an equal volume of the siNA solution and the RNAiMax solution were added together for each of the siNAs.
(§3) This solution was incubated at room temperature for 20 minutes. After incubation, 20 uL of the solution was added to each of the relevant wells. The final concentration of siNA in each well was 10 nM and the final volume of RNAiMax in each well was 0.3 ul.
(§4) The time of incubation with the RNAiMax-siNA complexes was 24 hours and there was no change in media between transfection and harvesting, unless otherwise indicated.
(§5) RNA was extracted from a 96-well plate using the TaqMan® Gene Expression Cells-to-CT™ Kit (Cat# 4399002) with a modified protocol. Briefly, a 60 uL (1 plate) or 110 uL (2 plates) of the Lysis Solution with DNase I was dispensed into each well of the Lysis Buffer Plate (twin.tec full skirt plate). The lysis buffer and stop plates were stored at 4° C. until the cells were washed.
(§6) The culture medium was aspirated and discarded from the wells of the culture plate. 50 uL of chilled DPBS was added to each well, then aspirated and discarded. The lysis was performed automatically using a BioMek FX instrument and method. After the Biomek method was completed, the lysis plate was incubated for 2 min at room temperature. The lysis plate can be stored for 2 hours at 4° C., or at −20° C. or −80° C. for two months.
(§7) Each well of the reverse transcription plate required 10 uL of 2× reverse transcriptase Buffer, 1 uL of 20× reverse transcription enzyme and 2 uL of nuclease-free water. The reverse transcription master mix was prepared by mixing 2× reverse transcription buffer, 20× reverse transcription enzyme mix, and nuclease-free water. 13 uL of the reverse transcription master mix was dispensed into each well of the reverse transcription plate (semi-skirted). A separate reverse transcription plate was prepared for each cell plate. The plate was loaded onto a Biomek NX or Biomek FX Dual-96 and the Biomek method was run. The program is programmed to automatically added 7 uL of lysate from the cell lysis procedure described above into each well of the reverse transcription plate. The plate is sealed and spun on a centrifuge (1000 rpm for 30 seconds) to settle the contents to the bottom of the reverse transcription plate. The plate is placed in a thermocycler at 37° C. for 60 min, 95° C. for 5 min, and 4° C. until the plate is removed from the thermocycler. Upon removal, if not used immediately, the plate was frozen at −20° C.
(§8) A series of probes and primers were used to detect the various mRNA transcripts of the genes of β-Actin (human cell line only), and of STAT1 and GAPDH in mouse and human cell lines. All Taqman probes and primers for the experiments here-in described were supplied as pre-validated sets by Applied Biosystems, Inc. (see Table 2).
The assays were performed on an ABI 7900 instrument, according to the manufacturer's instructions.
Within each experiment, the baseline was set in the exponential phase of the amplification curve, and based on the intersection point of the baselines with the amplification curve, a Ct value was assigned by the instrument. […]
For orientation: Quantitative PCR measures a nucleic acid by following its amplification.

Series [2] relates to STAT1 mouse mRNA. The series can be described thus: Initial screen of siNAs: STAT1 mRNA knock-down in NIH 3T3 cells (96-well transfection, Taqman RT-PCR). Type of series: cell-based. Particulars: 10 nM siNA, 24 hrs, normalized against GAPDH, average of 2 experiments. How it is done: NIH 3T3 (mouse; ATCC cat# CRL-1658): Cells were cultured at 37° C. in the presence of 5% CO2 and grown in Dulbecco's modified Eagle's medium (DMEM) with 4 mM L-glutamine adjusted to contain 1.5 g/L sodium bicarbonate and 4.5 g/L glucose and supplemented with fetal bovine serum at a final concentration of 10%, 100 μg/mL of streptomycin, and 100 U/mL penicillin.
as §1, §2, §3, §4, §5, §6, §7, §8
The assays were performed on an ABI 7900 instrument, according to the manufacturer's instructions. […]

Results on eleven substances are retold here after US20120022142A1, “RNA Interference Mediated Inhibition of Signal Transducer and Activator of Transcription 1 (STAT1) Gene Expression Using Short Interfering Nucleic Acid (siNA)” (Merck Sharp & Dohme Corp., priority 2009, published 2012).

[invAb] = inverted abasic unit; d = 2'-deoxy (DNA); m = 2'-O-methyl; r = 2'-OH (RNA); f = 2'-fluoro

For the substance “25353-DC: STAT1 siNA duplex, human target site 2253; modified strands SEQ ID NO: 43 and 44 (chain 1 CACGAAGAAAGAACUUUCUTT; chain 2 AGAAAGUUCUUUCUUCGUGUU; chain 1: DNA at AGT, 2'-fluoro at CU, [invAb] at 5' end, 3' end, backbone not given here; chain 2: sugars from the 5' end rrrmmmffffffffffmfmmm, backbone not given here)”, the “% KD Human” value in series [1] worked out at 86%. The “% KD Mouse” value in series [2] amounted to 79%.
With “25347-DC: STAT1 siNA duplex, human target site 2318; modified strands SEQ ID NO: 31 and 32 (chain 1 CUGAGAAUAUUCCUGAGAATT; chain 2 UUCUCAGGAAUAUUCUCAGUU; chain 1: DNA at AGT, 2'-fluoro at CU, [invAb] at 5' end, 3' end, backbone not given here; chain 2: sugars from the 5' end rrrffmmmmmfmfffffmmmm, backbone not given here)”, in series [1], the “% KD Human” value is given as 93%. Further, in series [2], the “% KD Mouse” value is recorded as 57%.
For “25364-DC: STAT1 siNA duplex, human target site 674; modified strands SEQ ID NO: 65 and 66 (chain 1 GUCUGAAGGAAGAAAGGAATT; chain 2 UUCCUUUCUUCCUUCAGACUU; chain 1: sugars from the 5' end d1 f3 d17, [invAb] at 5' end, 3' end, backbone not given here; chain 2: sugars from the 5' end r3 f12 m3 f1 m2, backbone not given here)”, in that order: 88% and 83%.
In the case of “25359-DC: STAT1 siNA duplex, human target site 268; modified strands SEQ ID NO: 55 and 56 (chain 1 CGACAGUCUUGGCACCUAATT; chain 2 UUAGGUGCCAAGACUGUCGUU; chain 1: DNA at AGT, 2'-fluoro at CU, [invAb] at 5' end, 3' end, backbone not given here; chain 2: sugars from the 5' end rrrmmfmffmmmmffmffmmm, backbone not given here)”, in series [1], the “% KD Human” value came out at 88%. Also, the “% KD Mouse” value in series [2] stood at 47%.
For “25357-DC: STAT1 siNA duplex, human target site 2285; modified strands SEQ ID NO: 51 and 52 (chain 1 CUGACAUCAUUCGCAAUUATT; chain 2 UAAUUGCGAAUGAUGUCAGUU; chain 1: DNA at AGT, 2'-fluoro at CU, [invAb] at 5' end, 3' end, backbone not given here; chain 2: sugars from the 5' end rrrffmfmmmfmmfmffmmmm, backbone not given here)” the same measures were 93% and 29%.
For “25346-DC: STAT1 siNA duplex, human target site 837; modified strands SEQ ID NO: 29 and 30 (chain 1 CCUGGAAGAUUUACAAGAUTT; chain 2 AUCUUGUAAAUCUUCCAGGUU; chain 1: DNA at AGT, 2'-fluoro at CU, [invAb] at 5' end, 3' end, backbone not given here; chain 2: sugars from the 5' end rrrffmfmmmffffffmmmmm, backbone not given here)” the same measures were 62% and 31%.
“25356-DC: STAT1 siNA duplex, human target site 1115; modified strands SEQ ID NO: 49 and 50 (chain 1 GCUUGGAUCAGCUGCAGAATT; chain 2 UUCUGCAGCUGAUCCAAGCUU; chain 1: DNA at AGT, 2'-fluoro at CU, [invAb] at 5' end, 3' end, backbone not given here; chain 2: sugars from the 5' end rrrfmfmmffmmfffmmmfmm, backbone not given here)”: the “% KD Human” value in series [1] was 43%. For the same substance, the “% KD Mouse” value in series [2] was found to be 35%.
In the case of “25358-DC: STAT1 siNA duplex, human target site 1020; modified strands SEQ ID NO: 53 and 54 (chain 1 CACUGAACUUACCCAGAAUTT; chain 2 AUUCUGGGUAAGUUCAGUGUU; chain 1: DNA at AGT, 2'-fluoro at CU, [invAb] at 5' end, 3' end, backbone not given here; chain 2: sugars from the 5' end rrrffmmmfmmmfffmmfmmm, backbone not given here)”, in series [1], the “% KD Human” value was determined as 79%. In addition, the “% KD Mouse” value in series [2] turned out to be 17%.
For “25365-DC: STAT1 siNA duplex, human target site 431; modified strands SEQ ID NO: 67 and 68 (chain 1 CCAUGGAAAUCAGACAGUATT; chain 2 UACUGUCUGAUUUCCAUGGUU; chain 1: DNA at AGT, 2'-fluoro at CU, [invAb] at 5' end, 3' end, backbone not given here; chain 2: sugars from the 5' end rrrfmfffmmfffffmfmmmm, backbone not given here)” the same measures were 87% and 80%.
With “25350-DC: STAT1 siNA duplex, human target site 190; modified strands SEQ ID NO: 37 and 38 (chain 1 GCGCAGAAAAGUUUCAUUUTT; chain 2 AAAUGAAACUUUUCUGCGCUU; chain 1: DNA at AGT, 2'-fluoro at CU, [invAb] at 5' end, 3' end, backbone not given here; chain 2: sugars from the 5' end rrrfmmmmfffffffmfmfmm, backbone not given here)”, in series [1], the “% KD Human” value is given as 82%. Besides, the “% KD Mouse” value in series [2] is reported as 31%.
For “25370-DC: STAT1 siNA duplex, human target site 785; modified strands SEQ ID NO: 77 and 78 (chain 1 AAGUCAGAAAUGUGAAGGATT; chain 2 UCCUUCACAUUUCUGACUUUU; chain 1: DNA at AGT, 2'-fluoro at CU, [invAb] at 5' end, 3' end, backbone not given here; chain 2: sugars from the 5' end rrrfffmfmfffffmmfffmm, backbone not given here)” the same measures were 84% and 76%.
